In ChEMBL document CHEMBL4190352, “Continued SAR exploration of 1,2,4-thiadiazole-containing scaffolds in the design of free fatty acid receptor 1 (GPR40) agonists” (Eur J Med Chem, 2017) one finds Activity and EC50 data, which are given here for 2 compounds.

Format in all cases: functional, cell-based
The target in assay [1] is T1, Free fatty acid receptor 4 (Homo sapiens) (UniProt Q5NUL3).
T1 sequence (whole entry): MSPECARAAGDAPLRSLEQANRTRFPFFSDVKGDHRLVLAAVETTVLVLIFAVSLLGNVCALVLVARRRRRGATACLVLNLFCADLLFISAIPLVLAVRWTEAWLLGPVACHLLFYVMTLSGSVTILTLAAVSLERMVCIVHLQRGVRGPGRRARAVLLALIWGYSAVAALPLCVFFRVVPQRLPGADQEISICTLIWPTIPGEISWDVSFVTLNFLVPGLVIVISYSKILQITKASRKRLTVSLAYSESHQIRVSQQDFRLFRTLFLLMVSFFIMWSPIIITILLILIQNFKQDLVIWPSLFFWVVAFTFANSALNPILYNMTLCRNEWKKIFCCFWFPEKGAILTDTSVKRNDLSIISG
The assay is described as follows: Agonist activity at GPR120/FFA4 (unknown origin) expressed in CHO cells assessed as increase in calcium flux at 10 uM by Fluo-8 AM dye based FLIPR method. In general terms: Calcium assays in cells follow changes in intracellular calcium, usually with a dye or a luminescent sensor.

The target in assay [2] is T2, Free fatty acid receptor 1 (Homo sapiens, UniProt O14842). The assay can be described thus: Agonist activity at human GPR40/FFA1 expressed in CHO cells assessed as increase in calcium flux at 1 uM by Fluo-8 AM dye based FLIPR method relative to 10 uM GW9508.
Assay [3] addresses T3, Free fatty acid receptor 3 (Homo sapiens) (UniProt O14843).
T3 sequence (whole entry): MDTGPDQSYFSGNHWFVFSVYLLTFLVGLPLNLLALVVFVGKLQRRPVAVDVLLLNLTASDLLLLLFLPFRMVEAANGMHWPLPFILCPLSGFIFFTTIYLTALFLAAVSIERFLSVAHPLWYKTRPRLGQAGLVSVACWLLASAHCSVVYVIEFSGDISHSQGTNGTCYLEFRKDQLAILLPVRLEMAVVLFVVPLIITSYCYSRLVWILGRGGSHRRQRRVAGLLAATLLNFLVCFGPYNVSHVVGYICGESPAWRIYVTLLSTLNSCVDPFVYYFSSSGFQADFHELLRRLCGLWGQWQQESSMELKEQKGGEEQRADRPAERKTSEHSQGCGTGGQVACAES
The assay can be described thus: Agonist activity at GPR41/FFA3 (unknown origin) expressed in CHO cells assessed as increase in calcium flux at 10 uM by Fluo-8 AM dye based FLIPR method.

Assay [4] concerns the target T4, Free fatty acid receptor 2 (Homo sapiens) (UniProt O15552).
T4 sequence (whole entry): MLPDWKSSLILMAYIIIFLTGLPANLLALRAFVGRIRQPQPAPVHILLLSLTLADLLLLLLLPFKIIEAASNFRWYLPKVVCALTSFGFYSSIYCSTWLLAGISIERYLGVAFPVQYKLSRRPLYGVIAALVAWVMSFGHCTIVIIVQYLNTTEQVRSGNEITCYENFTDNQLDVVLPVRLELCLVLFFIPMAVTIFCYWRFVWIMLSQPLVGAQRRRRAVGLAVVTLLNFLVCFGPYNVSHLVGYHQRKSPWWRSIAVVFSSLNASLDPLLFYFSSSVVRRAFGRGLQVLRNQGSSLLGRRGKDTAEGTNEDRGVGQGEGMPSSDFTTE
The assay is described as follows: Agonist activity at GPR43/FFA2 (unknown origin) expressed in CHO cells assessed as increase in calcium flux at 10 uM by Fluo-8 AM dye based FLIPR method.

The target in assay [5] is T2, Free fatty acid receptor 1. The assay can be described thus: Agonist activity at human GPR40/FFA1 expressed in CHO cells assessed as increase in calcium flux at 1 uM by Fluo-8 AM dye based FLIPR method.

The source made the active and inactive calls. The calls are words filed in the database; no cut-off is given here.

T2 sequence (O14842 whole entry): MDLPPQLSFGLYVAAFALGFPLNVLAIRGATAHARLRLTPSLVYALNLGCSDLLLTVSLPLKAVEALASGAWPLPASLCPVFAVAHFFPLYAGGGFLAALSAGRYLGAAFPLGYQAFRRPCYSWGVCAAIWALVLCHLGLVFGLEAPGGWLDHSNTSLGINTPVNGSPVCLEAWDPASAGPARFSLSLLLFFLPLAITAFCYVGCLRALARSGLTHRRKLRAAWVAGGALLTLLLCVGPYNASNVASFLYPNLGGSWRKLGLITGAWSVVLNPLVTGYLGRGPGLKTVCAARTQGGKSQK

As for `Cc1ccc(OCc2nnc(C(=O)Nc3ccc(CCC(=O)O)cc3)s2)cc1C`, the outcome in assay [1], in assay [3] and in assay [4] was inactive. In addition, the Activity in assay [2] was determined as 64.9%. Besides, the 50% effective concentration (EC50) (commonly the concentration at which the effect is half-maximal) in assay [5] is 1.13 µM.

With `O=C(O)CCc1ccc(NC(=O)c2nnc(COc3ccc(F)cc3)s2)cc1`, the result in assay [1], in assay [3] and in assay [4] was inactive. For the same compound, in assay [2], the Activity was found to be 48.5%. In addition, the EC50 in assay [5] came to 5.39 µM.
